Experimental findings from US10808275B2, “Use of at least one chromogenic and/or fluorogenic phosphatase substrate for the detection and/or enumeration of enterobacteria in a sample” (BIOMERIEUX, priority 2013, dated 2020) are described below.

In experiment [1] the test system is non-fermenting Gram-negative. In words: Specificity of phosphatase substrates: growth and coloration of non-enterobacteria strains on chromogenic agar media. It is filed as cell-based, non-fermenting Gram-negative bacteria. The note with it: for coloration >= 1: % positive non-fermenting Gram-negative strains; for growth: non-fermenting Gram-negative strains grown / 7 tested. Here is the method:
(§1) 38 bacterial strains, among which 31 enterobacteria and 7 non-enterobacteria, were tested on media containing various phosphatase substrates. Readings of the dishes were then taken at 24 h.
(§2) Then phosphatase substrates are added as follows: • Medium 1: addition of X-phosphate (X-P) at 60 mg/l • Medium 2: addition of Rose-phosphate (Rose-P) at 300 mg/L • Medium 3: addition of Magenta-phosphate (Magenta-P) at 300 mg/L • Medium 4: addition of Purple-phosphate (Purple-P) at 200 mg/L
(§3) The media are divided into Petri dishes.
(§4) Inoculation is performed from 24 h pre-cultures at 30° C. or 37° C., depending on the species, on Trypticase-soy medium.
(§5) Suspension in 0.5 McF physiological water is performed, and then the strains are inoculated with a 10 μl calibrated oese.
(§6) Readings are taken after 24 h and 48 h of incubation at 37° C.
(§7) Colonies with coloration intensities greater than or equal to 1 were considered positive, applying the reading scale below.
(§8) Reading scale of enzymatic activity/coloration • 0=no activity • 0.5=very pale coloration • 1=low-intensity distinct coloration • 2=medium-intensity obvious coloration • 3=intense coloration present, • 4=highly intense coloration present.

Experiment [2] concerns enterobacteria. In words: Specificity of phosphatase substrates: growth and coloration of enterobacteria strains on chromogenic agar media. It is filed as cell-based. Particulars: for coloration: % of enterobacteria strains coloured; for coloration >= 1: % of enterobacteria strains positive (intensity >= 1 on 0-4 reading scale); for growth: enterobacteria strains grown / 31 tested. The method, then: as §1, §2, §3, §4, §5, §6, §7, §8

Consider “5-bromo-6-chloro-3-indoxyl-phosphate [Magenta-P]”, for which the “coloration >= 1” value in experiment [1] (24 h at 37° C.) was found to be 0%; in experiment [1] (48 h at 37° C.) it was 0%; in experiment [2] (24 h at 37° C.), 90%. In addition, the growth in experiment [1] (24 h at 37° C.) is reported as 5/7; in experiment [1] (48 h at 37° C.), 7/7; in experiment [2] (24 h at 37° C.), 30/31; in experiment [2] (48 h at 37° C.), 31/31. Also, the figures for the “sensitivity of the substrate compared with the other substrates” value in experiment [2] (24 h) and in experiment [2] (48 h) were “most sensitive” and “largely identical”, respectively. Moreover, in experiment [2] (48 h at 37° C.), the coloration is 100%.
With `O=P(O)(O)Oc1c[nH]c2cc(Cl)ccc12` [Rose-P, 6-chloro-3-indoxyl-phosphate], the “coloration >= 1” value is 0% in experiment [1] (24 h at 37° C.), 0% in experiment [1] (48 h at 37° C.) and 77% in experiment [2] (24 h at 37° C.). For the same compound, the growth in experiment [1] (24 h at 37° C.) is recorded as 5/7; in experiment [1] (48 h at 37° C.), 7/7; in experiment [2] (24 h at 37° C.), 30/31; in experiment [2] (48 h at 37° C.), 31/31. Further, the “sensitivity of the substrate compared with the other substrates” value in experiment [2] (24 h) and in experiment [2] (48 h) was “least sensitive” throughout. In experiment [2] (48 h at 37° C.), this compound returned a coloration of 94%.
With `O=P(O)(O)Oc1c[nH]c2ccc(Br)c(Cl)c12` [X-P, 5-bromo-4-chloro-3-indoxyl-phosphate], the “coloration >= 1” value in experiment [1] (24 h at 37° C.) is 0%; in experiment [1] (48 h at 37° C.), 0%; in experiment [2] (24 h at 37° C.), 90%. The growth in experiment [1] (24 h at 37° C.) is 7/7; in experiment [1] (48 h at 37° C.), 7/7; in experiment [2] (24 h at 37° C.) it was 30/31; in experiment [2] (48 h at 37° C.), 31/31. For the same compound, the results for the “sensitivity of the substrate compared with the other substrates” value in experiment [2] (24 h) and in experiment [2] (48 h) were “most sensitive” and “largely identical”, respectively. The same compound showed a coloration in experiment [2] (48 h at 37° C.) of 97%.
